According to ChEMBL document CHEMBL6078724, “Discovery of the first examples of right open reading frame kinase 2 (RIOK2) molecular glue degraders” (Eur J Med Chem, 2025):
The source made the active and inactive calls. The calls are words filed in the database; no cut-off is given here.

Molecular target: Serine/threonine-protein kinase RIO2 (Homo sapiens, UniProt Q9BVS4)
Assay: Binding affinity to RIOK2 (unknown origin) assessed as dissociation constant
Conditions: not given

Chain of Serine/threonine-protein kinase RIO2 (Q9BVS4 whole entry): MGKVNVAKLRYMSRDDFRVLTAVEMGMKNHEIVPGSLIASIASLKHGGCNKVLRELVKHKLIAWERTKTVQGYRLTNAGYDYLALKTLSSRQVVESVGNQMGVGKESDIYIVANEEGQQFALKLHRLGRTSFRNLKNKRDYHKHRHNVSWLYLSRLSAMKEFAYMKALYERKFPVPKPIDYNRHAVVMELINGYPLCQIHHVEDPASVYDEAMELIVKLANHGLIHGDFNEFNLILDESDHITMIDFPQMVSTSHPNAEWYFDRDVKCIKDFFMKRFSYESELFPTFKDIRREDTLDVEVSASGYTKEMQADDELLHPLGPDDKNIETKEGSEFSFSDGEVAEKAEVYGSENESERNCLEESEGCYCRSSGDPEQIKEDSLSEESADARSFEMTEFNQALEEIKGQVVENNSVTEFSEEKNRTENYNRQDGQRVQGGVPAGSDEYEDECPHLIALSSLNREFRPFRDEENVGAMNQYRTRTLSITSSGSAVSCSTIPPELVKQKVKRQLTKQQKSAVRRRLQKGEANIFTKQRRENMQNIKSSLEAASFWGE

Kd	Compound
0.52 µM	COc1ccc2cc([C@H](C)C(=O)Nc3cc(C)ccn3)ccc2c1

Molecular target: T1, E3 ubiquitin-protein ligase RNF126/Serine/threonine-protein kinase RIO2 (Homo sapiens, UniProt Q9BVS4+Q9BV68)
Assay: Molecular glue degradation activity at RNF126/RIOK2 in human MOLT-4 cells assessed as induction protein degradation incubated for 12 hrs by immunoblot analysis
Assay type: cell-based
Conditions: not given
Target sequence in this assay (Q9BVS4 whole entry): as above
Target sequence in this assay (Q9BV68 whole entry): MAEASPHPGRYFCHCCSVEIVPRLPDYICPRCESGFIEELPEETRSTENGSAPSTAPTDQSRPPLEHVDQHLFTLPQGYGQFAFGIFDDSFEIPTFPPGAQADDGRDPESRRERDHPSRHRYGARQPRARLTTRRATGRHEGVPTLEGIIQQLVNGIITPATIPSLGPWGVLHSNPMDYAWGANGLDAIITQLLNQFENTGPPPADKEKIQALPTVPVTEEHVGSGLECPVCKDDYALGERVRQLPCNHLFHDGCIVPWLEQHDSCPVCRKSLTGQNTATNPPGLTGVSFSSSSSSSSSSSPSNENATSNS

DC50	Compound
1.28 µM	CCOc1ccc(C(=O)/C=C/C(=O)N2CCN(c3ccc(-n4nnc5c(=O)[nH]c6ccc(-c7ccc(OC)nc7)cc6c54)cc3C(F)(F)F)CC2)cc1
> 10 µM	COc1ccc(-c2ccc3[nH]c(=O)c4nnn(-c5ccc(N6CCN(C(=O)/C=C/c7ccc(C(F)(F)F)cc7)CC6)c(C(F)(F)F)c5)c4c3c2)cn1
0.69 µM	COc1ccc(C(=O)/C=C/C(=O)N2CCN(c3ccc(-n4nnc5c(=O)[nH]c6ccc(-c7ccc(OC)nc7)cc6c54)cc3C(F)(F)F)CC2)cc1
0.79 µM	COc1ccc(-c2ccc3[nH]c(=O)c4nnn(-c5ccc(N6CCN(C(=O)/C=C/C(=O)c7ccccc7OC)CC6)c(C(F)(F)F)c5)c4c3c2)cn1
1.18 µM	COc1ccc(-c2ccc3[nH]c(=O)c4nnn(-c5ccc(N6CCN(C(=O)/C=C/C(=O)c7ccc(OC(F)F)cc7)CC6)c(C(F)(F)F)c5)c4c3c2)cn1
> 10 µM	COc1ccc(-c2ccc3[nH]c(=O)c4nnn(-c5ccc(N6CCN(C(=O)CCC(=O)c7ccc(F)cc7)CC6)c(C(F)(F)F)c5)c4c3c2)cn1
0.98 µM	COc1ccc(-c2ccc3[nH]c(=O)c4nnn(-c5ccc(N6CCN(C(=O)/C=C/C(=O)c7ccc(F)c(F)c7)CC6)c(C(F)(F)F)c5)c4c3c2)cn1
1.75 µM	COc1ccc(-c2ccc3[nH]c(=O)c4nnn(-c5ccc(N6CCN(C(=O)/C=C/C(=O)c7ccc(OC(F)(F)F)cc7)CC6)c(C(F)(F)F)c5)c4c3c2)cn1
> 10 µM	COc1ccc(/C=C/C(=O)N2CCN(c3ccc(-n4nnc5c(=O)[nH]c6ccc(-c7ccc(OC)nc7)cc6c54)cc3C(F)(F)F)CC2)cc1
1.47 µM	COc1ccc(-c2ccc3[nH]c(=O)c4nnn(-c5ccc(N6CCN(C(=O)/C=C/C(=O)c7ccc(C)cc7)CC6)c(C(F)(F)F)c5)c4c3c2)cn1
1.03 µM	COc1ccc(-c2ccc3[nH]c(=O)c4nnn(-c5ccc(N6CCN(C(=O)/C=C/C(=O)c7ccc(C(F)(F)F)cc7)CC6)c(C(F)(F)F)c5)c4c3c2)cn1
1.07 µM	COc1ccc(-c2ccc3[nH]c(=O)c4nnn(-c5ccc(N6CCN(C(=O)/C=C/C(=O)c7ccc(OC(C)C)cc7)CC6)c(C(F)(F)F)c5)c4c3c2)cn1
4.31 µM	C=CC(=O)N1CCN(c2ccc(-n3nnc4c(=O)[nH]c5ccc(-c6ccc(OC)nc6)cc5c43)cc2C(F)(F)F)CC1
1.54 µM	COc1ccc(-c2ccc3[nH]c(=O)c4nnn(-c5ccc(N6CCN(C(=O)/C=C/C(=O)c7ccc(Cl)cc7)CC6)c(C(F)(F)F)c5)c4c3c2)cn1
1.1 µM	COc1ccc(-c2ccc3[nH]c(=O)c4nnn(-c5ccc(N6CCN(C(=O)/C=C/C(=O)c7ccccc7)CC6)c(C(F)(F)F)c5)c4c3c2)cn1
3.65 µM	COc1ccc(-c2ccc3[nH]c(=O)c4nnn(-c5ccc(N6CCN(C(=O)/C=C/C(=O)c7ccccc7F)CC6)c(C(F)(F)F)c5)c4c3c2)cn1
1.05 µM	COc1cccc(C(=O)/C=C/C(=O)N2CCN(c3ccc(-n4nnc5c(=O)[nH]c6ccc(-c7ccc(OC)nc7)cc6c54)cc3C(F)(F)F)CC2)c1
3.8 µM	COc1ccc(-c2ccc3[nH]c(=O)c4nnn(-c5ccc(N6CCN(C(=O)/C=C/C(=O)c7ccc([N+](=O)[O-])cc7)CC6)c(C(F)(F)F)c5)c4c3c2)cn1
2.18 µM	COc1ccc(-c2ccc3[nH]c(=O)c4nnn(-c5ccc(N6CCN(C(=O)/C=C/C(=O)c7ccc(Br)cc7)CC6)c(C(F)(F)F)c5)c4c3c2)cn1
1.95 µM	COc1ccc(-c2ccc3[nH]c(=O)c4nnn(-c5ccc(N6CCN(C(=O)/C=C/C(=O)c7ccc(OC)c(OC)c7)CC6)c(C(F)(F)F)c5)c4c3c2)cn1
2.14 µM	COc1ccc(-c2ccc3[nH]c(=O)c4nnn(-c5ccc(N6CCN(C(=O)C7=CCCC7)CC6)c(C(F)(F)F)c5)c4c3c2)cn1

Molecular target: T1, E3 ubiquitin-protein ligase RNF126/Serine/threonine-protein kinase RIO2
Assay: Molecular glue degradation activity at RNF126/RIOK2 in human MOLT-4 cells assessed as induction protein degradation incubated for 12 hrs by immunoblot analysis relative to control
Assay type: cell-based
Conditions: not given
Target sequence in this assay (Q9BV68 2-311 partner limits assumed): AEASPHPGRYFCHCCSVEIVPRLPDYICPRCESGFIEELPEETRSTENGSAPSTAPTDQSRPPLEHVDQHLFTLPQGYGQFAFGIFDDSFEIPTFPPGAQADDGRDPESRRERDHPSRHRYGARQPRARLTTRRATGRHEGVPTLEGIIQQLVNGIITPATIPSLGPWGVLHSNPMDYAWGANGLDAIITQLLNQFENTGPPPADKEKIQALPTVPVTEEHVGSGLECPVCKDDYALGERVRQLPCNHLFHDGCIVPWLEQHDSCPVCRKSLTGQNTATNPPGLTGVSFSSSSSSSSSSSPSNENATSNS
Target sequence in this assay (Q9BVS4 whole entry): as the sequence (Q9BVS4 whole entry) above

Emax	Compound
70.6%	CCOc1ccc(C(=O)/C=C/C(=O)N2CCN(c3ccc(-n4nnc5c(=O)[nH]c6ccc(-c7ccc(OC)nc7)cc6c54)cc3C(F)(F)F)CC2)cc1
60.1%	COc1ccc(C(=O)/C=C/C(=O)N2CCN(c3ccc(-n4nnc5c(=O)[nH]c6ccc(-c7ccc(OC)nc7)cc6c54)cc3C(F)(F)F)CC2)cc1
74.1%	COc1ccc(-c2ccc3[nH]c(=O)c4nnn(-c5ccc(N6CCN(C(=O)/C=C/C(=O)c7ccccc7OC)CC6)c(C(F)(F)F)c5)c4c3c2)cn1
68.9%	COc1ccc(-c2ccc3[nH]c(=O)c4nnn(-c5ccc(N6CCN(C(=O)/C=C/C(=O)c7ccc(OC(F)F)cc7)CC6)c(C(F)(F)F)c5)c4c3c2)cn1
77.3%	COc1ccc(-c2ccc3[nH]c(=O)c4nnn(-c5ccc(N6CCN(C(=O)/C=C/C(=O)c7ccc(F)c(F)c7)CC6)c(C(F)(F)F)c5)c4c3c2)cn1
84.5%	COc1ccc(-c2ccc3[nH]c(=O)c4nnn(-c5ccc(N6CCN(C(=O)/C=C/C(=O)c7ccc(OC(F)(F)F)cc7)CC6)c(C(F)(F)F)c5)c4c3c2)cn1
72.3%	COc1ccc(-c2ccc3[nH]c(=O)c4nnn(-c5ccc(N6CCN(C(=O)/C=C/C(=O)c7ccc(C)cc7)CC6)c(C(F)(F)F)c5)c4c3c2)cn1
84.6%	COc1ccc(-c2ccc3[nH]c(=O)c4nnn(-c5ccc(N6CCN(C(=O)/C=C/C(=O)c7ccc(C(F)(F)F)cc7)CC6)c(C(F)(F)F)c5)c4c3c2)cn1
66.1%	COc1ccc(-c2ccc3[nH]c(=O)c4nnn(-c5ccc(N6CCN(C(=O)/C=C/C(=O)c7ccc(OC(C)C)cc7)CC6)c(C(F)(F)F)c5)c4c3c2)cn1
81.4%	C=CC(=O)N1CCN(c2ccc(-n3nnc4c(=O)[nH]c5ccc(-c6ccc(OC)nc6)cc5c43)cc2C(F)(F)F)CC1
75.1%	COc1ccc(-c2ccc3[nH]c(=O)c4nnn(-c5ccc(N6CCN(C(=O)/C=C/C(=O)c7ccc(Cl)cc7)CC6)c(C(F)(F)F)c5)c4c3c2)cn1
82.2%	COc1ccc(-c2ccc3[nH]c(=O)c4nnn(-c5ccc(N6CCN(C(=O)/C=C/C(=O)c7ccccc7)CC6)c(C(F)(F)F)c5)c4c3c2)cn1
62.8%	COc1ccc(-c2ccc3[nH]c(=O)c4nnn(-c5ccc(N6CCN(C(=O)/C=C/C(=O)c7ccccc7F)CC6)c(C(F)(F)F)c5)c4c3c2)cn1
68.4%	COc1cccc(C(=O)/C=C/C(=O)N2CCN(c3ccc(-n4nnc5c(=O)[nH]c6ccc(-c7ccc(OC)nc7)cc6c54)cc3C(F)(F)F)CC2)c1
68.1%	COc1ccc(-c2ccc3[nH]c(=O)c4nnn(-c5ccc(N6CCN(C(=O)/C=C/C(=O)c7ccc([N+](=O)[O-])cc7)CC6)c(C(F)(F)F)c5)c4c3c2)cn1
70.1%	COc1ccc(-c2ccc3[nH]c(=O)c4nnn(-c5ccc(N6CCN(C(=O)/C=C/C(=O)c7ccc(Br)cc7)CC6)c(C(F)(F)F)c5)c4c3c2)cn1
65%	COc1ccc(-c2ccc3[nH]c(=O)c4nnn(-c5ccc(N6CCN(C(=O)/C=C/C(=O)c7ccc(OC)c(OC)c7)CC6)c(C(F)(F)F)c5)c4c3c2)cn1
82.2%	COc1ccc(-c2ccc3[nH]c(=O)c4nnn(-c5ccc(N6CCN(C(=O)C7=CCCC7)CC6)c(C(F)(F)F)c5)c4c3c2)cn1

System: U-937
Assay: Antiproliferative activity against human U-937 cells incubated for 72 hrs by CCK8 assay
Assay type: functional, cell-based
Conditions: U-937, 72 h

IC50	Compound
1.84 µM	COc1ccc(-c2ccc3[nH]c(=O)c4nnn(-c5ccc(N6CCNCC6)c(C(F)(F)F)c5)c4c3c2)cn1

System: MOLT-4
Assay: Antiproliferative activity against human MOLT-4 cells incubated for 72 hrs by CCK8 assay
Assay type: functional, cell-based
Conditions: MOLT-4, 72 h

IC50	Compound
1.26 µM	COc1ccc(-c2ccc3[nH]c(=O)c4nnn(-c5ccc(N6CCNCC6)c(C(F)(F)F)c5)c4c3c2)cn1

System: HL-60
Assay: Antiproliferative activity against human HL-60 cells incubated for 72 hrs by CCK8 assay
Assay type: functional, cell-based
Conditions: HL-60, 72 h

IC50	Compound
1.21 µM	COc1ccc(-c2ccc3[nH]c(=O)c4nnn(-c5ccc(N6CCNCC6)c(C(F)(F)F)c5)c4c3c2)cn1

System: K562
Assay: Antiproliferative activity against human K562 cells incubated for 72 hrs by CCK8 assay
Assay type: functional, cell-based
Conditions: K562, 72 h

IC50	Compound
2.03 µM	COc1ccc(-c2ccc3[nH]c(=O)c4nnn(-c5ccc(N6CCNCC6)c(C(F)(F)F)c5)c4c3c2)cn1

System: OCI-Ly3
Assay: Antiproliferative activity against human OCILY3 cells incubated for 72 hrs by CCK8 assay
Assay type: functional, cell-based
Conditions: OCI-Ly3, 72 h

IC50	Compound
0.52 µM	COc1ccc(-c2ccc3[nH]c(=O)c4nnn(-c5ccc(N6CCNCC6)c(C(F)(F)F)c5)c4c3c2)cn1

System: ASPC1
Assay: Antiproliferative activity against human ASPC1 cells incubated for 72 hrs by CCK8 assay
Assay type: functional, cell-based
Conditions: ASPC1, 72 h

IC50	Compound
2.43 µM	COc1ccc(-c2ccc3[nH]c(=O)c4nnn(-c5ccc(N6CCNCC6)c(C(F)(F)F)c5)c4c3c2)cn1

System: A549
Assay: Antiproliferative activity against human A549 cells incubated for 72 hrs by CCK8 assay
Assay type: functional, cell-based
Conditions: A549, 72 h

IC50	Compound
2.55 µM	COc1ccc(-c2ccc3[nH]c(=O)c4nnn(-c5ccc(N6CCNCC6)c(C(F)(F)F)c5)c4c3c2)cn1

System: HeLa
Assay: Antiproliferative activity against human HeLa cells incubated for 72 hrs by CCK8 assay
Assay type: functional, cell-based
Conditions: not given

IC50	Compound
1.23 µM	COc1ccc(-c2ccc3[nH]c(=O)c4nnn(-c5ccc(N6CCNCC6)c(C(F)(F)F)c5)c4c3c2)cn1

System: not listed separately
Assay: Antiproliferative activity against HEK293 cells incubated for 72 hrs by CCK8 assay
Assay type: toxicity, cell-based
Conditions: human

Compound	IC50 at 72 h
COc1ccc(-c2ccc3[nH]c(=O)c4nnn(-c5ccc(N6CCNCC6)c(C(F)(F)F)c5)c4c3c2)cn1	1.94 µM

System: not listed separately
Assay: Antiproliferative activity against mouse NIH3T3 cells incubated for 72 hrs by CCK8 assay
Assay type: toxicity, cell-based
Conditions: not given

Compound	IC50 at 72 h
COc1ccc(-c2ccc3[nH]c(=O)c4nnn(-c5ccc(N6CCNCC6)c(C(F)(F)F)c5)c4c3c2)cn1	2.84 µM

System: not listed separately
Assay: Antiproliferative activity against human MRC5 cells incubated for 72 hrs by CCK8 assay
Assay type: toxicity, cell-based
Conditions: not given

Compound	IC50 at 72 h
COc1ccc(-c2ccc3[nH]c(=O)c4nnn(-c5ccc(N6CCNCC6)c(C(F)(F)F)c5)c4c3c2)cn1	1.31 µM

Molecular target: T1, E3 ubiquitin-protein ligase RNF126/Serine/threonine-protein kinase RIO2
Assay: Molecular glue degradation activity at RNF126/RIOK2 in human MOLT-4 cells assessed as decrease in mTOR level at 500 nM incubated for 12 hrs by immunoblot analysis
Assay type: cell-based
Conditions: not given
Target sequence in this assay (Q9BV68 2-311 partner limits assumed): as the sequence (Q9BV68 2-311 partner limits assumed) above
Target sequence in this assay (Q9BVS4 whole entry): as the sequence (Q9BVS4 whole entry) above

Activity	Compound
inactive	COc1ccc(-c2ccc3[nH]c(=O)c4nnn(-c5ccc(N6CCNCC6)c(C(F)(F)F)c5)c4c3c2)cn1

Molecular target: T1, E3 ubiquitin-protein ligase RNF126/Serine/threonine-protein kinase RIO2
Assay: Molecular glue degradation activity at RNF126/RIOK2 in human MOLT-4 cells assessed as decrease in AKT level at 500 nM incubated for 12 hrs by immunoblot analysis
Assay type: cell-based
Conditions: not given
Target sequence in this assay (Q9BV68 2-311 partner limits assumed): as the sequence (Q9BV68 2-311 partner limits assumed) above
Target sequence in this assay (Q9BVS4 whole entry): as the sequence (Q9BVS4 whole entry) above

Activity	Compound
inactive	COc1ccc(-c2ccc3[nH]c(=O)c4nnn(-c5ccc(N6CCNCC6)c(C(F)(F)F)c5)c4c3c2)cn1

System: MOLT-4
Assay: Induction of cell cycle arrest in human MOLT-4 cells assessed as accumulation at G2/M phase at 900 nM incubated for 24 hrs by PI staining based flow cytometry relative to control
Assay type: functional
Conditions: not given

Compound	Activity
COc1ccc(-c2ccc3[nH]c(=O)c4nnn(-c5ccc(N6CCNCC6)c(C(F)(F)F)c5)c4c3c2)cn1	29.84%

System: MOLT-4
Assay: Induction of apoptosis in human MOLT-4 cells at 900 nM incubated for 48 hrs by Annexin V-FITC/PI staining based flow cytometry relative to control
Assay type: functional
Conditions: not given

Compound	Activity
COc1ccc(-c2ccc3[nH]c(=O)c4nnn(-c5ccc(N6CCNCC6)c(C(F)(F)F)c5)c4c3c2)cn1	8.03%
